# Results published in patent publication US20090215783A1, “COMPOSITION FOR INDUCTION OR INHIBITION OF STEM CELL DIFFERENTIATION” (CHOONGWAE PHARMA CORPORATION, priority 2006, published 2009).
# How the values were obtained:
# hBMMSC = experiment: Cell proliferation assay (CellTiter 96) in hBMMSC; format: cell-based, human; conditions: 20 μM, treated alone
# Procedure: Cell proliferation assay: To investigate the cytotoxicity of the test compounds for hBMMSC, hBMMSC were exposed to the test compounds for 6-7 days at the same condition above (method b and c). Cell proliferation was assessed using CellTiter 96 Aqueous One Solution (Promega, #G3581). Absorbance at 490 nm of each well was determined with a microplate reader (Molecular Device) and % growth inhibition was calculated compared with control.
# [1] = test system: Mouse embryonic stem (ES) cells, TC1; experiment: Cardiomyogenesis modulating activity assay (alpha-MHC promoter EGFP, embryoid bodies, FACS/fluorescence microscopy); format: cell-based; conditions: for Cardiomyogenesis: fold change of EGFP expression level compared with DMSO control: embryoid bodies treated for 5 days
# In short: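 Mouse TC1 ES cells carrying an alpha-MHC promoter-EGFP reporter were formed into embryoid bodies (~600 cells, 2 days hanging drop, 2 days suspension), plated, then exposed to compounds (final 0.05% DMSO) for 5 days. Cardiomyogenesis assessed by EGFP via FACS after trypsin dissociation, fluorescence microscopy, and daily counts of beating EBs.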
# ALP mRNA in hBMMSC = experiment: RT-PCR of alkaline phosphatase (ALP) mRNA in hBMMSC; format: cell-based, human; conditions: compound treatment for 4 days
# Procedure: RT-PCR. To analyze the mRNA levels for Alkaline phosphatase (ALP), total RNA was isolated using Trizol (Invitrogen-GIBCO-BRL, Baltimore, Md.) from hBMMSC with or without compound treatment for 4 days. 2 μg RNA was reverse transcribed in a total volume of 20 μl with random hexamer (50 ng), and using the Superscript II reverse transcription system (Invitrogen-GIBCO-BRL), according to manufacturer's guidelines. PCR was carried out in a 50 μl volume containing 5 μl cDNA, 100 pmol primers, 100 μM dNTPs, 1×Taq buffer and 1.5 mM MgCl2. Reaction mixtures were heated to 80° C. for 10 min, after which Taq was added. cDNAs were amplified for 25 ([…]) or 15 (GAPDH) cycles. One round of amplification consisted of 1 min at 94° C., 2 min at 60° C., and 2 min at 72° C., with a final extension time of 10 min at 72° C. The PCR products were resolved and visualized by electrophoresis in a 2% gel, stained with ethidium bromide. ALP PCR primers used were, 5′-[…]-3′ and 5′-[…]-3′. Primer pairs for GAPDH were 5′-[…]-3′ and 5′-[…]-3′. A housekeeping gene, GADPH was used as a control.
# [2] = test system: human bone marrow derived-mesenchymal stem cells (hBMMSC); experiment: Osteogenesis modulating activity with osteogenic induction cocktails (ALP activity, mineralization); format: cell-based; conditions: for mineralization of hBMMSC: co-treated with osteogenic induction cocktails (OIC); for stimulation of mineralization at various concentrations: even at the 0.5 μM
# Procedure: Cell culture: Human bone marrow derived-mesenchymal stem cells (hBMMSC) were isolated from normal subjects.
# Osteogenesis modulating activity of test compounds with induction media: hBMMSC were culture with culture media containing osteogenic induction cocktails (OIC, 0.1 μM dexamethasone, 50 μM ascorbate-2-phosphate, 10 mM b-glycerophosphate). Four to five days after incubation, Alkaline phosphatase (ALP) activity of cell lysates were measured by colorimetry. For the determination of mineralization within the cells, Von Kossa staining or Alizarin Red S assay was performed 10-14 days after incubation.
# [3] = test system: human bone marrow derived-mesenchymal stem cells (hBMMSC); experiment: Osteogenesis modulating activity assay by test compound alone (ALP activity); format: cell-based; conditions: for ALP level enhanced: 20 μM, treated alone to hBMMSC; for fold induction at 20 µM: Homo sapiens, 168 h, hBMMSC, 20 μM test compound alone, six to seven days, read-out: Osteogenesis: fold change of ALP activity compared with DMSO control
# In short: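 hBMMSC from normal subjects were treated with compound at 20 μM final (0.01% DMSO) at 37° C, 5% CO2, with medium and compound renewed every two days. Alkaline phosphatase activity in cell lysates was measured colorimetrically after six to seven days.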
# [4] = test system: ANP and Nkx2.5 mRNA in the ES cells; experiment: Real time RT-PCR of cardiomyogenesis marker genes ANP and Nkx2.5; format: cell-based, mouse; conditions: ES cells treated for 7 and 10 days
# Procedure: d. Real time RT-PCR: To analyze the mRNA levels of cardiomyogenesis marker genes, Atrial Natriuretic Peptide (ANP) and Nk×2.5, total RNA was isolated using Trizol (Invitrogen-GIBCO-BRL, Baltimore, Md., USA) from stem cells with or without Compound E treatment for 7 days and 10 days. Relative expression level of each mRNA was measured.
# [5] = test system: β-catenin/TCF transcription; experiment: TopFlash reporter gene assay in SW480 cells; format: cell-based; conditions: Homo sapiens; SW480 cells transfected with β-catenin/TCF luciferase construct; 24 hours treatment; dual luciferase assay; read-out: IC50, inhibition of β-catenin/TCF reporter gene construct
# Procedure: FIG. 2. Compound A (Serial No. 111 in Table 2) inhibits β-catenin/TCF transcription. […] SW480 cells (10^5) were transfected with β-catenin/TCF luciferase construct. Cells were treated with Compound A (1-50 μM). 24 hours after the treatment lysates were prepared and subjected to dual luciferase assay.
# FIG. 3. Compound B (Serial No. 10 in Table 2) inhibits β-catenin/TCF transcription. […] SW480 cells ([…]) were transfected with β-catenin/TCF luciferase construct. Cells were treated with Compound B (1-50 μM). 24 hours after treatment lysates were prepared and subjected to dual luciferase assay.
# SW480 cells were transfected using Superfect™ transfection reagent (Qiagen, 301307). Cells were trypsinized briefly 1 day before transfection and plated on 6 well plate (5×10^5 cells/well) so that they were 50-80% confluent on the day of transfection.
# Four microgram (TOPFlash) and one microgram (pRL-null) of DNAs were diluted in […] of serum-free medium, and 30 μl of Superfect™ transfection reagent was added. The DNA-Superfect mixture was incubated at room temperature for 15 min, and then, 1 ml of 10% FBS DMEM was added to this complex for an additional 3 hours of incubation. While complexes were forming, cells were washed with PBS twice without antibiotics.
# The DNA-Superfect™ transfection reagent complexes were applied to the cells before incubating at 37° C. at 5% CO2 for 3 hours. […]
SMILES,Cardiomyogenesis: fold change of EGFP expression level compared with DMSO control ([1]; FACS) [fold],fold induction at 20 µM [3],also measured
O=C1C(Cc2ccc(OCc3ccccc3)cc2)N2C(=O)CN(Cc3ccc(F)cc3)N(C(=O)NCc3ccccc3)C2CN1Cc1cccc(C(F)(F)F)c1 (stereo not shown) [#66],3.13,2.02,cell proliferation (hBMMSC): 83%; ALP mRNA expression (ALP mRNA in hBMMSC): increased; mineralization of hBMMSC [2]: strongly induced mineralization; stimulation of mineralization at various concentrations [2]: osteogenesis inducing activity; ALP level enhanced [3]: 202%
O=C1[C@H](Cc2ccc(F)c(F)c2)N2C(=O)CN(Cc3ccc(F)cc3)N(C(=O)NCc3ccccc3)[C@H]2CN1Cc1cccc(C(F)(F)F)c1 [#71],4.63,,"expression level of ANP mRNA compared with DMSO control [4]: strongly increased; expression level of Nkx2.5 mRNA compared with DMSO control [4]: strongly increased; expression of fluorescence under the fluorescence microscope compared with DMSO control ([1]; 10 μM, Day 5): significantly enhanced; fold increase of alpha-MHC positive cells compared to DMSO treated EB ([1]; 10 μM, FACS): 4.6 fold; cell population expressing fluorescence (alpha-MHC positive) ([1]; 10 μM, FACS analysis of embryoid bodies): 2.50%; cardiomyogenesis differentiation promoting effect at low concentration ([1]; even at the 0.3 μM): distinctive; cardiomyogenesis differentiation promoting activity (EGFP expression), concentration dependence ([1]; various concentrations): concentration-dependent"
O=C1[C@H](Cc2ccc(Cl)cc2)N2C(=O)CN(Cc3ccccc3)N(C(=O)NCc3ccccc3)[C@H]2CN1CCc1ccc(Cl)cc1 [#82],0.97,2,cell proliferation (hBMMSC): 127%; ALP mRNA expression (ALP mRNA in hBMMSC): increased; mineralization of hBMMSC [2]: strongly induced mineralization; stimulation of mineralization at various concentrations [2]: osteogenesis inducing activity; ALP level enhanced [3]: 200%
CCCCNC(=O)N1[C@H]2CN(CCc3ccc(OC)cc3)C(=O)[C@H](CC(C)C)N2C(=O)CN1Cc1ccc(C)cc1 [#97],0.71,0.54,
CCCCNC(=O)N1C2CN(CCc3ccc(OC)cc3)C(=O)[C@H](CC(=O)O)N2C(=O)CN1Cc1ccc(C)cc1 (stereo partly shown) [#98],3.34,0.26,
CN1C(=O)N2[C@@H](Cc3ccc(O)cc3)C(=O)N(CCc3ccc(F)cc3)C[C@@H]2N1C(=O)NCc1ccccc1 [#99],1.74,0.46,
CN1C(=O)N2[C@@H](Cc3ccc(O)cc3)C(=O)N(Cc3cccc4ccccc34)C[C@@H]2N1C(=O)NCc1ccccc1 [#100],1.35,1.11,
CCC(C)[C@H]1C(=O)N(CC2CCCCC2)C[C@H]2N1C(=O)N(C)N2C(=O)NCc1ccccc1 (stereo partly shown) [#101],2.32,1.28,
CCCC[C@H]1C(=O)N(CCc2ccc(OC)c(OC)c2)C[C@H]2N1C(=O)N(C)N2C(=O)NCc1ccccc1 [#102],1.01,1.61,
CCC(C)[C@H]1C(=O)N(CCC(c2ccccc2)c2ccccc2)C[C@H]2N1C(=O)N(C)N2C(=O)NCc1ccccc1 (stereo partly shown) [#103],1.98,0.98,
CCC(CC)N1CC2N(C(=O)N(C)N2C(=O)NCc2ccccc2)[C@@H](Cc2ccc(O)cc2)C1=O (stereo partly shown) [#104],0.62,1.42,
CC(C)C[C@H]1C(=O)N(C2CCCCC2)C[C@H]2N1C(=O)N(C)N2C(=O)NCc1ccccc1 [#105],1.12,0.8,
CC(C)[C@H]1C(=O)N(Cc2cccc(Br)c2)C[C@H]2N1C(=O)N(C)N2C(=O)NCc1ccccc1 [#106],1.25,0.37,
CCCCOCCCN1C[C@H]2N(C(=O)N(C)N2C(=O)NCc2ccccc2)[C@@H](CCSC)C1=O [#107],0.59,0.66,
CN1C(=O)N2C(CN(CCSCc3ccccc3)C(=O)[C@@H]2Cc2ccc(O)cc2)N1C(=O)NCc1ccccc1 (stereo partly shown) [#108],1.19,0.94,
CCC(C)[C@H]1C(=O)N(Cc2cccc(Cl)c2)C[C@H]2N1C(=O)N(C)N2C(=O)NCc1ccccc1 (stereo partly shown) [#109],0.97,1,
NC(=O)CC1C(=O)N(CCSCc2ccccc2)CC2N1C(=O)CN(Cc1ccc(F)cc1)N2C(=O)NCc1ccccc1 (stereo not shown) [#110],1.18,0.63,
CN1CC(=S)N2[C@H](Cc3ccc(O)cc3)C(=O)N(Cc3cccc4ccccc34)C[C@H]2N1C(=O)NCc1ccccc1 [#111],0.10,,IC50 [5]: 1.46 µM
